Laboratory results: patent US10047051B2, “Substituted pyridines and method of use” (AbbVie S.á{acute over (.)}r.l., priority 2015, dated 2018)

Tests used:
Type in all cases: cell-based
CFTR ΔF508 mutant = molecular target: T1, CFTR ΔF508 mutant (Homo sapiens, UniProt P13569, DEL508-508); test: YFP-halide influx assay for the CFTR-ΔF508 mutation (CFBE41o- cells); settings: forskolin 10.67 μM; for EC50: from (1−F/F0) vs concentration plot
T1 construct: expressed in transfected cells; host or cells: CFBE41o- cells, adenoviral transduction
How it was run: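 EC50 derived from plotting 1−F/F0 (fluorescence 36 s after iodide injection over pre-injection value) against compound concentration. Cells: CFBE41o- transduced with ΔF508-CFTR and YFP quench reporter, corrected 24 h at 27° C or by a CFTR modulator at 37° C.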

CFTR G551D mutant = molecular target: T2, CFTR G551D mutant (Homo sapiens, UniProt P13569, G551D); test: YFP-halide influx assay for the CFTR-G551D mutation (HEK293 cells); settings: forskolin 10.67 μM
T2 construct: expressed in transfected cells; host or cells: HEK293 cells, reverse transfection with plasmids
How it was run: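 Channel opening read as I⁻-driven quenching of a YFP H148Q/I152L/F47L reporter over 7 s post-injection, expressed as 1−F/F0 and fitted against concentration for EC50. Cells were HEK293 co-transfected at seeding with G551D CFTR plus reporter, then grown 24 h at 37 °C, 5% CO2.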

CFTR-G178R = molecular target: T3, CFTR-G178R (Homo sapiens, UniProt P13569, G178R); test: YFP-halide influx assay for the CFTR-G178R
T3 construct: expressed in transfected cells
Description: (§1) The YFP halide influx assay measured the functionality of the cystic fibrosis Transmembrane Conductance regulator (CFTR) channels. The assay was used to evaluate the capacity of compounds to increase the channel opening of existing mutant CFTR channels in the membrane. It makes use of the observation that the yellow fluorescent protein (YFP) variant YFP H148Q, I152L, F47L has its fluorescence substantially quenched by halide ions like Cl^− and I^− (Galietta, L. J. V., Haggie, P. M., Verkman, A. S., 2001. Green fluorescent protein-based halide indicators with improved chloride and iodide affinities. FEBS Lett. 499, 220-224. doi:10.1016/S0014-5793(01)02561-3).
(§2) For this purpose, HEK293-cells were seeded in 96 well plates. During seeding, the cells were reverse-transfected with plasmid vectors that direct the expression of the CFTR G551D mutant and of the YFP reporter. Cells were incubated at 37° C., 5% CO2 for 24 hours so as to allow for sufficient expression of the CFTR protein.
(§3) The I^−-induced quenching of fluorescence was recorded immediately after injection of I^− for 7 seconds. The capacity of a compound to increase the channel opening was directly correlated with the decrease in fluorescence, and was expressed as (1−(fluorescence after 7 seconds (F)/fluorescence before injection (F0))) and an EC50 was derived from a (1−F/F0) vs compound concentration plot.
(§4) Similar YHA assays were developed for other channel gating defective or channel conductance defective CFTR mutants to determine effect of compound on channel activity. Examples of mutants are G178R, G1349D, S549N, R117H, R334W. This assay is also used for additional class I CFTR mutants, including G542X, W1282X; class II mutants including N1303K, and for class III mutants including S1251N; or wild-type CFTR.

CFTR-G1349D = molecular target: T4, CFTR-G1349D (Homo sapiens, UniProt P13569, G1349D); test: YFP-halide influx assay for the CFTR-G1349D
T4 construct: expressed in transfected cells
Description: as §1, §2, §3, §4

CFTR-S549N = molecular target: T5, CFTR-S549N (Homo sapiens, UniProt P13569, S549N); test: YFP-halide influx assay for the CFTR-S549N; set-up: % Activation: concentration or dose not given beside the values
T5 construct: expressed in transfected cells
Description: as §1, §2, §3, §4

CFTR-R117H = molecular target: T6, CFTR-R117H (Homo sapiens, UniProt P13569, R117H); test: YFP-halide influx assay for the CFTR-R117H
T6 construct: expressed in transfected cells
Description: as §1, §2, §3, §4

T2 sequence (P13569 whole entry G551D): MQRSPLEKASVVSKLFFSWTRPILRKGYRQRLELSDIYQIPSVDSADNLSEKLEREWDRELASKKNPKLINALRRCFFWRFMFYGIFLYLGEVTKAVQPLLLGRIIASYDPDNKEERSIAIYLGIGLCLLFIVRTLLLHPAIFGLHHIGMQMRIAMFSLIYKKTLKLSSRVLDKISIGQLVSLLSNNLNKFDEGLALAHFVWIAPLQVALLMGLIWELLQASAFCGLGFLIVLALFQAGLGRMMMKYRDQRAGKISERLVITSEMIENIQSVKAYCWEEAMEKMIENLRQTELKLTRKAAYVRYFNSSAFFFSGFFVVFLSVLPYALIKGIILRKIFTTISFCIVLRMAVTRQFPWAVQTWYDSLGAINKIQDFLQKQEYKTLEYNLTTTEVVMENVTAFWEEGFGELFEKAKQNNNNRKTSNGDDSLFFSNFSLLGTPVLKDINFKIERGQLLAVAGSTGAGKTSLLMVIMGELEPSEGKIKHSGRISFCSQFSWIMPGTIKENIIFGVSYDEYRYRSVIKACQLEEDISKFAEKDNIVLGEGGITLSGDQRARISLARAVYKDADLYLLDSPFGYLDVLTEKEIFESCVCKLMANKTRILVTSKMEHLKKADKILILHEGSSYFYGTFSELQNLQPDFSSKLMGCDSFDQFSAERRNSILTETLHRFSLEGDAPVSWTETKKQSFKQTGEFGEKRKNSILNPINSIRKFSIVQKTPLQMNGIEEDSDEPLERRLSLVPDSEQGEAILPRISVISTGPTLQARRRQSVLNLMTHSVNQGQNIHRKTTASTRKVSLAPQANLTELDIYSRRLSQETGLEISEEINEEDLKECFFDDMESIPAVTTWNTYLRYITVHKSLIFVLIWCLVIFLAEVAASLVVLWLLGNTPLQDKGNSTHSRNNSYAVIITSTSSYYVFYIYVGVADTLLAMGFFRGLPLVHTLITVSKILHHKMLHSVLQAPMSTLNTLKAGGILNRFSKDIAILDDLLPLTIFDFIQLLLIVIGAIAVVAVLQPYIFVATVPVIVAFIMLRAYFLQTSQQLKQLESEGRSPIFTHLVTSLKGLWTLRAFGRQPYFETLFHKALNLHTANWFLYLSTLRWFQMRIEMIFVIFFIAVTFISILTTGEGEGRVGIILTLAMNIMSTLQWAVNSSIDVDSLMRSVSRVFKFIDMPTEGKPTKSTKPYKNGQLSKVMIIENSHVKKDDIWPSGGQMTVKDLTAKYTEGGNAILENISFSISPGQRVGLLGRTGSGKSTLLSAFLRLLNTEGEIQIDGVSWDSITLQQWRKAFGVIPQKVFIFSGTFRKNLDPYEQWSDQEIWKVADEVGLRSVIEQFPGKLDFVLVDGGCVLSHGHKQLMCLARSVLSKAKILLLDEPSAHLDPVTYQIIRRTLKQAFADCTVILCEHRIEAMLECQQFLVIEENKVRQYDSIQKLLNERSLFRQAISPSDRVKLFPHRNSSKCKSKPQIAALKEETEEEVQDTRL
T5 sequence (P13569 whole entry S549N): as the sequence (P13569 whole entry G551D) above, with S549N, D551G counted along it
T6 sequence (P13569 whole entry R117H): as the sequence (P13569 whole entry G551D) above, with R117H, D551G counted along it
T1 sequence (P13569 with tags, fused parts or gaps DEL508-508): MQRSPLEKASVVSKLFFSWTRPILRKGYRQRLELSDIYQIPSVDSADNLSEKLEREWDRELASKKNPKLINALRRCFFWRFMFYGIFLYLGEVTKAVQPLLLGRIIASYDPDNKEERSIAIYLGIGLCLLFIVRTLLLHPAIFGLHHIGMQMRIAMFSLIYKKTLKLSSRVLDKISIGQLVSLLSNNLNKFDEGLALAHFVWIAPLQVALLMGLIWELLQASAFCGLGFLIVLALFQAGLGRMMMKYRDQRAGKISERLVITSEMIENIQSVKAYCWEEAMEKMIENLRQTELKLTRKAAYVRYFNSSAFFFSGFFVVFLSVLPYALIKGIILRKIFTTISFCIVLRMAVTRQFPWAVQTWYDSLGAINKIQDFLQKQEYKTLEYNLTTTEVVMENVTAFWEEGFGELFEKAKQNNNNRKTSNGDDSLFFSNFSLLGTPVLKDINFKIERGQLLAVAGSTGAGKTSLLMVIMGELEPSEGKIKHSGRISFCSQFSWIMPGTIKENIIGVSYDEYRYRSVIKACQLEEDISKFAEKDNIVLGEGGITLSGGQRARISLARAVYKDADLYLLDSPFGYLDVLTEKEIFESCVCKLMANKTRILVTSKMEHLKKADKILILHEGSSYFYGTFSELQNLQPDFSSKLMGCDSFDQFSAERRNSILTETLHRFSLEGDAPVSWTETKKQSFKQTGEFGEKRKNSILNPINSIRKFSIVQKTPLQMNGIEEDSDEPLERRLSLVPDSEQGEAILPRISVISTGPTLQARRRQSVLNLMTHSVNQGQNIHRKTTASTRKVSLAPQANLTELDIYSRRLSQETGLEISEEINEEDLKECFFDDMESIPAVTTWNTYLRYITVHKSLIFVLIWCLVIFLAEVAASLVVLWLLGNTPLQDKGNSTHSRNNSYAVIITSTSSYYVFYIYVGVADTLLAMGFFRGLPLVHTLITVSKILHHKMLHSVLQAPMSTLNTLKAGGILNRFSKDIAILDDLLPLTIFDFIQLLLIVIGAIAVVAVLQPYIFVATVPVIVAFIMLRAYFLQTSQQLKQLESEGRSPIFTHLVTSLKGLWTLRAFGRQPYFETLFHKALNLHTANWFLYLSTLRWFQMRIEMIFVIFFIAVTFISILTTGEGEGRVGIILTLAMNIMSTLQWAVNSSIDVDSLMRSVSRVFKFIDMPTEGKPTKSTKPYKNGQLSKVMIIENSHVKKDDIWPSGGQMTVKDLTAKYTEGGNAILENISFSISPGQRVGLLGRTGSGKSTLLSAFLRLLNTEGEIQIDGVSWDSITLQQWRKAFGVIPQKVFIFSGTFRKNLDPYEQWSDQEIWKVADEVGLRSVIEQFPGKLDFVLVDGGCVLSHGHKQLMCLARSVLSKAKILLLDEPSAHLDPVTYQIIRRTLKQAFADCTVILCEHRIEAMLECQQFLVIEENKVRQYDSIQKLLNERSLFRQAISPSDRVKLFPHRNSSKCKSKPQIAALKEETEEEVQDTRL
T3 sequence (P13569 whole entry G178R): as the sequence (P13569 whole entry G551D) above, with G178R, D551G counted along it
T4 sequence (P13569 whole entry G1349D): as the sequence (P13569 whole entry G551D) above, with D551G, G1349D counted along it

| SMILES | % Activation (CFTR ΔF508 mutant) [%] | EC50 (CFTR ΔF508 mutant) [nM] | % Activation (CFTR G551D mutant) [%] | EC50 (CFTR G551D mutant) [nM] | % Activation (CFTR-G178R) [%] | EC50 (CFTR-G178R) [nM] | % Activation (CFTR-G1349D) [%] | EC50 (CFTR-G1349D) [nM] | % Activation (CFTR-S549N) [%] | EC50 (CFTR-S549N) [nM] | % Activation (CFTR-R117H) [%] | EC50 (CFTR-R117H) [nM] |
| --- | --- | --- | --- | --- | --- | --- | --- | --- | --- | --- | --- | --- |
| Nc1cc(S(=O)(=O)c2ccc(OC(F)(F)F)cc2)cnc1C(=O)Nc1cc[nH]n1 [Compound 291, 3-amino-N-(1H-pyrazol-3-yl)-5-{[4-(trifluoromethoxy)phenyl]sulfonyl}pyridine-2-carboxamide] | 98.2 | 5.5 | 44.7 | 242 | 79.3 | 109 | 79.8 | 149 | 75.6 | 92.1 | 74.2 | 155 |
| COCC(O)CNC(=O)c1ncc(S(=O)(=O)c2ccccc2OC(F)(F)F)cc1N (stereo not drawn) [Compound 80, 3-amino-N-(2-hydroxy-3-methoxypropyl)-5-{[2-(trifluoromethoxy)phenyl]sulfonyl}pyridine-2-carboxamide] | 102.0 | 3.2 | 95.1 | 946 | 95.08 | 81.1 | 98.43 | 119 | 108.5 | 144 | 111.5 | 408 |
| COC[C@H](O)CNC(=O)c1ncc(S(=O)(=O)c2ccccc2OC(F)(F)F)cc1N [Compound 177, 3-amino-N-[(2R)-2-hydroxy-3-methoxypropyl]-5-{[2-(trifluoromethoxy)phenyl]sulfonyl}pyridine-2-carboxamide] | 102.1 | 3.6 | 91.4 | 430 | 104.0 | 77.8 | 96.0 | 97.9 | 104.0 | 80.4 | 103.7 | 253 |
| Nc1cc(S(=O)(=O)c2ccccc2OC(F)(F)F)cnc1C(=O)NCCO [Compound 75, 3-amino-N-(2-hydroxyethyl)-5-{[2-(trifluoromethoxy)phenyl]sulfonyl}pyridine-2-carboxamide] | 121.0 | 7.6 | 68.5 | 1510 | 94.3 | 323 | 98.7 | 284 |  | 251 | 98.4 | 472 |
| Nc1cc(S(=O)(=O)c2ccc(F)cc2)c(-c2ccc(F)cc2)nc1C(=O)NC[C@@H](O)C(F)(F)F [Compound 259, 3-amino-6-(4-fluorophenyl)-5-[(4-fluorophenyl)sulfonyl]-N-[(2R)-3,3,3-trifluoro-2-hydroxypropyl]pyridine-2-carboxamide] | 102.5 | 4.3 | 92.6 | 1120 | 97.2 | 149 | 91.0 | 173 | 105.0 | 74.4 | 126.0 | 225 |
| Nc1cc(S(=O)(=O)c2ccc(C(F)(F)F)cc2)cnc1C(=O)NCC(F)(F)CO [Compound 241, 3-amino-N-(2,2-difluoro-3-hydroxypropyl)-5-{[4-(trifluoromethyl)phenyl]sulfonyl}pyridine-2-carboxamide] | 117.0 | 11.6 | 65.9 | 675 | 84.5 | 502 | 71.0 | 1110 | 90.7 | 691 | 103.0 | 608 |
| C[C@H](O)CNC(=O)c1ncc(S(=O)(=O)c2ccccc2OC(F)(F)F)cc1N [Compound 82, 3-amino-N-[(2S)-2-hydroxypropyl]-5-{[2-(trifluoromethoxy)phenyl]sulfonyl}pyridine-2-carboxamide] | 106.0 | 2.7 | 89.9 | 795 | 106.7 | 84.7 | 92.74 | 102 | 106.9 | 122 | 128.3 | 1050 |
| Nc1cc(S(=O)(=O)c2ccc(OC(F)(F)F)cc2)cnc1C(=O)N[C@@H]1COC[C@H]1O (racemic) [Compound 74, rac-3-amino-N-[(3R,4S)-4-hydroxytetrahydrofuran-3-yl]-5-{[4-(trifluoromethoxy)phenyl]sulfonyl}pyridine-2-carboxamide] | 110.0 | 17.2 | 65.0 | 839 | 84.3 | 348 | 86.8 | 511 | 91.4 | 567 | 100.0 | 866 |
| Nc1cc(S(=O)(=O)c2ccccc2OC(F)(F)F)cnc1C(=O)N1CC(F)(F)C1 [Compound 78, (3-amino-5-{[2-(trifluoromethoxy)phenyl]sulfonyl}pyridin-2-yl)(3,3-difluoroazetidin-1-yl)methanone] | 123.0 | 2.2 | 55.9 | 609 | 73 | 58.1 | 85.36 | 52.3 | 80.37 | 116 | 89.74 | 59.5 |
| Nc1cc(S(=O)(=O)c2ccc(OC(F)(F)F)cc2)cnc1C(=O)N1CC(O)(C(F)(F)F)C1 [Compound 79, (3-amino-5-{[4-(trifluoromethoxy)phenyl]sulfonyl}pyridin-2-yl)[3-hydroxy-3-(trifluoromethyl)azetidin-1-yl]methanone] | 99.5 | 3.3 | 48.9 | 256 | 74.5 | 31.3 | 83.08 | 61.4 | 88.09 | 44.3 | 103.1 | 22.2 |
| Nc1cc(S(=O)(=O)c2ccc(C(F)(F)F)cc2)cnc1C(=O)NC[C@@H](O)C(F)(F)F [Compound 63, 3-amino-N-[(2R)-3,3,3-trifluoro-2-hydroxypropyl]-5-{[4-(trifluoromethyl)phenyl]sulfonyl}pyridine-2-carboxamide] | 102.0 | 3.1 | 60.8 | 262 |  |  | 82.8 | 256 |  |  | 89.3 | 152 |
| CC(C)NC(=O)CNC(=O)c1ncc(S(=O)(=O)c2ccc(OC(F)(F)F)cc2)cc1N [Compound 57, 3-amino-N-[2-oxo-2-(propan-2-ylamino)ethyl]-5-{[4-(trifluoromethoxy)phenyl]sulfonyl}pyridine-2-carboxamide] | 93.1 | 7.1 | 51.8 | 385 |  |  | 59.6 | 457 |  |  | 72.8 | 356 |
